Patent US10478492B2, “Modifications of therapeutic agents for enhanced delivery to target sites” (Partikula LLC, priority 2016, dated 2019)
Read-outs that look alike come from different tables or passages of the source.

What was measured:
[1] = molecular target: monocarboxylate transporters (MCT); settings: competitive inhibitor of lactate transport in tumors; read-out: Ki as inhibitor of lactate transport; cited from earlier work
[2] = Stability in cell culture media containing 10% FBS by HPLC; type: in vitro ADME
Method: Stability of ADCA in cell culture media containing 10% FBS was examined by looking at the HPLC chromatograms and area under the peaks. For the study, […] solution of ADCA was prepared by mixing 10 μL of 100 mM DMSO stock solution with 1.99 mL of cell media. Turbidity was observed after mixing, however no precipitate was observed. The samples were then stored at 37° C., 150 μL aliquots were analyzed by HPLC (the sample was mixed before taking an aliquot, however no visible precipitate was observed even before mixing). Alanyl-DCA was detected at 205 nm with a retention time of 9.7 min on HPLC.
Stability of Mito-ADCA in cell culture media containing 10% FBS was monitored by examining the HPLC chromatograms and area under the peaks. Scheme below expected degradation products:
For this study, 500 μM solution of Mito-ADCA (MAD) was prepared by mixing 10 μL of 100 mM DMSO stock solution with 1.99 mL of cell culture media (RPMI 1640 medium, supplemented with 10% FBS, 1% Pen/strep). Turbidity was observed after mixing, however no precipitate was observed. The samples were then stored at 37° C., 150 μL aliquots were analyzed by HPLC (the sample was mixed before taking an aliquot, and no visible precipitate was observed even before mixing).
Using HPLC, MitoADCA (MAD), loss of one alanyl-DCA (MAD-ADCA), loss of three alanyl-DCA (i.e., TPP-Tris-OH) and the alanyl-DCA (ADCA) were tracked. MAD was detected and monitored at 268 nm with retention time of 18.08 min, Mito-A-DCA missing 1 alanyl DCA at 268 nm with retention time of 17.13 min, total amount of MAD and Mito-A-DCA missing 1 alanyl DCA at 268 nm, TPP-Tris-OH at 268 nm with retention time of 14.6 min, and alanyl DCA at 205 nm with retention time of 9.5 min. The MAD half-life in cell media at 500 μM was measured as ˜20 h. TPP-Tris-OH starts appearing in HPLC only after 10 h in media.

[3] = Stability in water by HPLC; type: physicochemical; settings: for stability in water: 2 days
Method: (§1) In a further study, Mito-ADCA stability testing was carried out in rat serum. 0.5 mg/mL solutions 18% rat serum were prepared and analyzed by HPLC. Mito-ADCA was detected at 268 nm with a retention time of 18.08 min over time of 4500 min in 18% rat serum. […] After 2 d a peak of TPP-Tris-OH was observed. The amount of TPP-Tris-OH corresponded to 76% of the original.
(§2) Stability of TPP-bis-ADCA in rat serum and water was carried out using 500 μg/mL solution in 18% rat serum. The solution was analyzed by HPLC for two days.
(§3) Hydrolytic stability of TPP-ibDCA in serum, and in water was studied. A 500 μg/mL solution of TPP-ib-DCA in water, and in 18% rat serum was analyzed by HPLC using the method for Mito-ADCA/DCA detection described above. […] In water, hydrolysis of TPP-ib-DCA stops halfway likely due to the acidification of the solution.

[4] = Stability in 18% rat serum by HPLC; type: in vitro ADME
Method: as §1, §2, §3

A549 cells = experiment: Cytotoxicity in A549 cells; type: cell-based
Text: (§4) Next the cytotoxicity ability of PDCA and PDCA-NPs were studied in A549 and HCT16 cells to evaluate the ability of these new formulations with respect to NaDCA.
(§5) Next the cytotoxicity ability of PalmMetformin and NPs were studied in A549 and HCT16 cells to evaluate the ability of these new formulations with respect to Meformin.

HCT116 cells = experiment: Cytotoxicity in HCT116 cells; type: cell-based
Text: as §4, §5

[5] = system: PDH activity in primary rat hepatocytes; settings: read-out: EC50 for increase of PDH activity; cited from earlier work
PDHK2 = PDHK2 (Homo sapiens, UniProt Q15119); settings: cited from earlier work
[6] = A549 cells, 24 + 48 h, read-out: IC50 (24 + 48 h)
[7] = A549 cells, 72 h, read-out: IC50 (72 h)
[8] = 500 μg/mL in 18% rat serum, two days

N#CC(=Cc1ccc(O)cc1)C(=O)O [ACCA, α-cyano-4-hydroxy cinnamic acid]
Ki [1]: 500 µM

O=C(CCCCC[P+](c1ccccc1)(c1ccccc1)c1ccccc1)NC(COC(=O)CCNC(=O)C(Cl)Cl)(COC(=O)CCNC(=O)C(Cl)Cl)COC(=O)CCNC(=O)C(Cl)Cl.[Br-] [Mito-ADCA, TPP-Tris-β-alanino-DCA]
half-life at 500 μM ([2]; cell culture medium with 10% FBS (no cells), 500 μM, RPMI 1640 with 10% FBS, 37° C.): ~20 h
species released by hydrolysis ([2]; cell media with 10% FBS): Alanyl-DCA is released as a result of hydrolysis instead of DCA
stability in water [3]: stable in water for 2 days without signs of decomposition
half-life at 0.5 mg/mL ([4]; 0.5 mg/mL in 18% rat serum): ~7 h
species released by hydrolysis ([4]; 18% rat serum): Alanyl-DCA is released as a result of hydrolysis instead of DCA

CN(C)C(=N)N=C(N)N [Meformin, Metformin, reference compound]
IC50 (A549 cells; Homo sapiens, A549 cells, 24 + 48 h, Table 4, read-out: IC50 (24 + 48 h)): > 500 µM
IC50 (A549 cells; Homo sapiens, A549 cells, 72 h, Table 4, read-out: IC50 (72 h)): > 500 µM
IC50 (A549 cells; Homo sapiens, A549 cells, read-out: IC50 values): > 500 µM
IC50 (HCT116 cells; Homo sapiens, HCT-116, 24 + 48 h, Table 4, read-out: IC50 (24 + 48 h)): > 500 µM
IC50 (HCT116 cells; Homo sapiens, HCT-116, 72 h, Table 4, read-out: IC50 (72 h)): > 500 µM
IC50 (HCT116 cells; Homo sapiens, HCT-116, read-out: IC50 values): > 500 µM

CN(C)C(=O)c1ccc(S(=O)(=O)c2ccc(NC(=O)[C@@](C)(O)C(F)(F)F)c(Cl)c2)cc1 [AZD7545, 4-[3-chloro-4-[[(2R)-3,3,3-trifluoro-2-hydroxy-2-methylpropanoyl]amino]phenyl]sulfonyl-N,N-dimethylbenzamide]
EC50 [5]: 0.105 µM
IC50 (PDHK2): 0.0064 µM

O=C([O-])C(Cl)Cl.[Na+] [NaDCA, reference compound]
IC50 (A549 cells; [6]): > 20000 µM
IC50 (A549 cells; [7]): > 20000 µM
IC50 (A549 cells; cell line not stated in the sentence (A549 and HCT16 cells studied), read-out: IC50 value): ≥ 20000 µM
IC50 (HCT116 cells; 24 + 48 h, read-out: IC50 (24 + 48 h)): > 20000 µM
IC50 (HCT116 cells; 72 h, read-out: IC50 (72 h)): > 20000 µM

O=C(NCCCCC(NC(=O)C(Cl)Cl)C(=O)NCCCC[P+](c1ccccc1)(c1ccccc1)c1ccccc1)C(Cl)Cl (stereo not shown) [TPP-bis-ADCA]
stability in water [3]: stable in both serum and water
decomposition in serum ([4]; 500 μg/mL in 18% rat serum, after 2 days): 2%
detection of DCA [4, 8]: no DCA was detected
stability in serum [4, 8]: stable in both serum and water

CCCCCCCCCCCCCCCC(=O)NC(COC(=O)CCNC(=O)C(Cl)Cl)(COC(=O)CCNC(=O)C(Cl)Cl)COC(=O)CCNC(=O)C(Cl)Cl [PADCA, Palm-Tris-β-alanino-DCA]
IC50 (A549 cells; Homo sapiens, A549 cells, free PADCA, read-out: IC50 value): ~400 µM

CC(C)(OC(=O)C(Cl)Cl)C(=O)NCCCC[P+](c1ccccc1)(c1ccccc1)c1ccccc1.[Br-] [TPP-ib-DCA, (4-(2-(2,2-dichloroacetoxy)-2-methylpropanamido)butyl) triphenylphosphonium bromide]
hydrolysis in water ([3]; 500 μg/mL in water): stops halfway
appearance of free DCA ([4]; 500 μg/mL in 18% rat serum): delayed relative to the disappearance of the ester
hydrolysis in serum compared with MitoDCA ([4]; 500 μg/mL in 18% rat serum): slower than MitoDCA

O=C(O)CCNC(=O)C(Cl)Cl [ADCA, β-alanyl-DCA]
change in ADCA concentration (total area of absorbance peak) ([2]; 1.5 mM, cell culture media with 10% FBS, 37° C., five days): virtually no change in ADCA concentration over five days

CCCCCCCCCCCCCCCC(=O)NC(COC(=O)C(Cl)Cl)(COC(=O)C(Cl)Cl)COC(=O)C(Cl)Cl [PDCA, Palmitic-Tris-DCA]
IC50 (A549 cells; [6]): 204 µM
IC50 (A549 cells; [7]): 175 µM
IC50 (A549 cells; cell line not stated in the sentence (values match A549 of Table 2), read-out: IC50 value): ~204 µM
